# Laboratory results: PubChem BioAssay AID624369 (Broad Institute, 2012)
# Inconclusive results are not listed. Active and inactive are the calls of the source.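 Rule for the calls: active = fitted curve crosses a set inhibition level at a dose up to twice the top tested dose; inconclusive = flat curve with moderate inhibition, or an unreliable curve fit; inactive = the rest, including signal rising instead of falling.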
# Assay: inhibitors of TNFa-stimulated NF-kB luciferase reporter, dose response, selectivity assay for EBV LMP1 NF-kB inhibitor project, HEK293 LMP1 reporter cells, dry powder, set 2 (AID 624369)
# Details: HEK293 LMP1 TES2 NF-kB luciferase reporter, 16 h; at 16 µM (top of the series)
row,Structure (SMILES),"activity change, negative = inhibition"
1,C[C@@H]1CN([C@H](C)CO)C(=O)Cc2cc(NC(=O)Cc3ccccc3)ccc2O[C@@H]1CN(C)Cc1ccc(C(F)(F)F)cc1,23.7% (inactive)

# Same assay, conditions: HEK293 LMP1 TES2 NF-kB luciferase reporter, 16 h; at 30 µM (top of the series)
row,Structure (SMILES),"activity change, negative = inhibition"
1,Cc1noc(C)c1S(=O)(=O)Nc1ccc2c(c1)C(=O)N([C@@H](C)CO)C[C@H](C)[C@H](CN(C)Cc1ccc(C(F)(F)F)cc1)OCCCC[C@@H](C)O2,83.8% (inactive)
2,C[C@H](NC(=O)C[C@@H]1C=C[C@H](NC(=O)Cc2ccccn2)[C@H](CO)O1)c1ccccc1,-0.606% (inactive)

# Same assay, conditions: HEK293 LMP1 TES2 NF-kB luciferase reporter, 16 h; at 35 µM (top of the series)
row,Structure (SMILES),"activity change, negative = inhibition"
1,C[C@@H](NC(=O)C[C@@H]1C=C[C@@H](NC(=O)Cc2ccccn2)[C@H](CO)O1)c1ccccc1,-0.205% (inactive)
2,O=C(Cc1ccccn1)NCC[C@H]1CC[C@H](NC(=O)Nc2ccc(Cl)cc2)[C@@H](CO)O1,-0.241% (inactive)
3,C[C@@H]1CN([C@@H](C)CO)C(=O)Cc2cc(NC(=O)Cc3ccccc3)ccc2O[C@H]1CN(C)Cc1ccc(C(F)(F)F)cc1,29.3% (inactive)
4,COc1cccc(S(=O)(=O)N(C)C[C@H]2Oc3cc(C4=CCCCC4)ccc3S(=O)(=O)N([C@@H](C)CO)C[C@@H]2C)c1,12% (inactive)
5,O=C(Nc1ccc(C(F)(F)F)cc1)Nc1ccc2c(c1)[C@H]1C[C@@H](CC(=O)N3CCc4ccccc4C3)O[C@@H](CO)[C@H]1O2,0.365% (inactive)
6,COc1ccccc1C(=O)Nc1ccc2c(c1)C(=O)N(C)[C@@H]1CC[C@H](CC(=O)NCCc3ccncc3)O[C@H]1CO2,-5.47% (inactive)
7,C[C@@H](NC(=O)C[C@H]1C=C[C@H](NC(=O)Cc2ccccn2)[C@H](CO)O1)c1ccccc1,3.96% (inactive)
8,O=C(Cc1ccccn1)NCC[C@H]1CC[C@@H](NC(=O)Nc2ccc(Cl)cc2)[C@@H](CO)O1,-6.43% (inactive)
9,C[C@@H](NC(=O)C[C@@H]1C=C[C@@H](NC(=O)Cc2ccccn2)[C@@H](CO)O1)c1ccccc1,-4.92% (inactive)
10,C[C@@H](NC(=O)C[C@@H]1C=C[C@H](NC(=O)Cc2ccccn2)[C@@H](CO)O1)c1ccccc1,4.33% (inactive)
11,C[C@@H]1CN([C@H](C)CO)C(=O)Cc2cc(NC(=O)Cc3ccccc3)ccc2O[C@H]1CN(C)Cc1ccc(C(F)(F)F)cc1,2.66% (inactive)
12,C[C@H](NC(=O)C[C@H]1C=C[C@H](NC(=O)Cc2ccccn2)[C@@H](CO)O1)c1ccccc1,-2.25% (inactive)
13,COC(=O)C[C@@H]1C[C@@H]2c3cc(NC(=O)CN(C)C)ccc3O[C@@H]2[C@@H](CO)O1,4.43% (inactive)
14,C[C@H](NC(=O)C[C@@H]1C=C[C@@H](NC(=O)Cc2ccccn2)[C@@H](CO)O1)c1ccccc1,-1.02% (inactive)
15,O=C(C[C@@H]1C[C@H]2c3cc(NS(=O)(=O)c4ccc(F)cc4)ccc3O[C@H]2[C@@H](CO)O1)NC1CCCCC1,-3.73% (inactive)
16,C[C@H]1CN([C@@H](C)CO)C(=O)Cc2cc(NC(=O)Cc3ccccc3)ccc2O[C@@H]1CN(C)Cc1ccc(C(F)(F)F)cc1,13.6% (inactive)
17,COc1cccc(S(=O)(=O)N(C)C[C@@H]2Oc3cc(C4=CCCCC4)ccc3S(=O)(=O)N([C@H](C)CO)C[C@H]2C)c1,-5.06% (inactive)
18,Cc1noc(C)c1S(=O)(=O)Nc1ccc2c(c1)C(=O)N([C@@H](C)CO)C[C@H](C)[C@@H](CN(C)Cc1ccc(C(F)(F)F)cc1)OCCCC[C@@H](C)O2,-1.88% (inactive)
19,O=C(Cc1ccccn1)NCC[C@@H]1CC[C@@H](NC(=O)Nc2ccc(Cl)cc2)[C@@H](CO)O1,2.08% (inactive)

row,Structure (SMILES),"activity change, negative = inhibition"
1,C[C@H](NC(=O)C[C@H]1C=C[C@H](NC(=O)Cc2ccccn2)[C@H](CO)O1)c1ccccc1,3.06% (inactive)
2,C[C@@H]1CN([C@H](C)CO)C(=O)c2c(c3ccccc3n2C)-c2ccccc2CO[C@@H]1CN(C)C(=O)Nc1ccc(F)cc1,-1.47% (inactive)
3,O=C(Cc1ccccn1)NCC[C@@H]1CC[C@H](NC(=O)Nc2ccc(Cl)cc2)[C@H](CO)O1,1.35% (inactive)
4,COc1cccc(S(=O)(=O)N(C)C[C@@H]2Oc3cc(C4=CCCCC4)ccc3S(=O)(=O)N([C@@H](C)CO)C[C@@H]2C)c1,17.7% (inactive)
5,COc1cccc(S(=O)(=O)N(C)C[C@H]2Oc3cc(C4=CCCCC4)ccc3S(=O)(=O)N([C@H](C)CO)C[C@H]2C)c1,26.9% (inactive)
6,O=C(Cc1ccccn1)NCC[C@H]1CC[C@H](NC(=O)Nc2ccc(Cl)cc2)[C@H](CO)O1,-3.5% (inactive)
7,COc1cccc(C#Cc2ccc([C@@H]3[C@H](C#N)N(C(=O)c4ccccn4)[C@H]3CO)cc2)c1,-1.9% (inactive)
8,C[C@@H]1CN([C@@H](C)CO)C(=O)c2c(c3ccccc3n2C)-c2ccccc2CO[C@@H]1CN(C)C(=O)Nc1ccc(F)cc1,3.56% (inactive)
9,C[C@@H]1CN([C@@H](C)CO)C(=O)Cc2cc(NC(=O)Cc3ccccc3)ccc2O[C@@H]1CN(C)Cc1ccc(C(F)(F)F)cc1,26.6% (inactive)
10,CO[C@H]1CN(C)C(=O)c2ccc(NC(=O)C3CC3)cc2OC[C@H](C)N(C(=O)c2ccccn2)C[C@H]1C,-5.44% (inactive)
11,C[C@H](CO)N1C[C@H](C)[C@@H](CN(C)S(=O)(=O)c2cccc(F)c2)Oc2ncc(C#CC3CCCCC3)cc2C1=O,1.93% (inactive)
12,COc1ccc(NC(=O)N(C)C[C@@H]2Oc3cc(C#CCC(C)C)ccc3S(=O)(=O)N([C@@H](C)CO)C[C@@H]2C)cc1,14.6% (inactive)
13,O=C(C[C@@H]1C[C@@H]2c3cc(NC(=O)c4cccnc4)ccc3O[C@@H]2[C@H](CO)O1)NCC(F)(F)F,-2.45% (inactive)
14,C[C@H]1CN([C@@H](C)CO)C(=O)c2c(c3ccccc3n2C)-c2ccccc2CO[C@@H]1CN(C)C(=O)Nc1ccc(F)cc1,1.28% (inactive)
15,O=C(C[C@H]1C[C@@H]2c3cc(NS(=O)(=O)c4ccc(F)cc4)ccc3O[C@@H]2[C@H](CO)O1)NC1CCCCC1,-5.14% (inactive)
16,C[C@@H]1CN([C@H](C)CO)C(=O)c2c(c3ccccc3n2C)-c2ccccc2CO[C@H]1CN(C)C(=O)Nc1ccc(F)cc1,30% (inactive)
17,C[C@@H](NC(=O)C[C@H]1C=C[C@H](NC(=O)Cc2ccccn2)[C@@H](CO)O1)c1ccccc1,0.235% (inactive)
18,CN(C)c1ccc2c(c1)[C@@H]1C[C@@H](CC(=O)NCc3ccc(Oc4ccccc4)cc3)O[C@@H](CO)[C@@H]1O2,-31.8% (inactive)
19,CS(=O)(=O)Nc1ccc2c(c1)[C@@H]1C[C@H](CC(=O)NCC3CC3)O[C@H](CO)[C@@H]1O2,6.19% (inactive)

row,Structure (SMILES),"activity change, negative = inhibition"
1,Cc1noc(C)c1S(=O)(=O)Nc1ccc2c(c1)C(=O)N([C@@H](C)CO)C[C@@H](C)[C@@H](CN(C)Cc1ccc(C(F)(F)F)cc1)OCCCC[C@@H](C)O2,30.6% (inactive)
2,O=C(C[C@@H]1C[C@@H]2c3cc(NS(=O)(=O)c4ccc(F)cc4)ccc3O[C@@H]2[C@H](CO)O1)NC1CCCCC1,12.6% (inactive)
3,C[C@H]1CN([C@@H](C)CO)C(=O)Cc2cc(NC(=O)Cc3ccccc3)ccc2O[C@H]1CN(C)Cc1ccc(C(F)(F)F)cc1,63.2% (inactive)
4,O=C(Cc1ccccn1)NCC[C@H]1CC[C@@H](NC(=O)Nc2ccc(Cl)cc2)[C@H](CO)O1,-8.81% (inactive)
5,C[C@H](CO)N1C[C@H](C)[C@H](CN(C)Cc2ccc(Oc3ccccc3)cc2)Oc2ccc(NC(=O)CCCN(C)C)cc2C1=O,20.6% (inactive)
6,O=C(Cc1ccccn1)NCC[C@@H]1CC[C@H](NC(=O)Nc2ccc(Cl)cc2)[C@@H](CO)O1,0.116% (inactive)
7,CO[C@@H]1CN(C)C(=O)c2ccc(NC(C)=O)cc2OC[C@@H](C)N(Cc2ccccc2F)C[C@H]1C,3.06% (inactive)
8,COc1ccccc1CNC(=O)C[C@H]1C[C@@H]2c3cc(NC(=O)CN(C)C)ccc3O[C@@H]2[C@@H](CO)O1,-0.186% (inactive)
9,C[C@@H](NC(=O)C[C@H]1C=C[C@@H](NC(=O)Cc2ccccn2)[C@H](CO)O1)c1ccccc1,-3.95% (inactive)
10,C[C@H](NC(=O)C[C@@H]1C=C[C@H](NC(=O)Cc2ccccn2)[C@@H](CO)O1)c1ccccc1,-2.15% (inactive)
11,C[C@H](CO)N1C[C@H](C)[C@H](CN(C)C(=O)NC2CCCCC2)Oc2cc(/C=C/c3ccccc3)ccc2S1(=O)=O,-10.3% (inactive)
12,C[C@H](NC(=O)C[C@H]1C[C@@H]2c3cc(NC(=O)c4cccnc4)ccc3O[C@@H]2[C@@H](CO)O1)c1ccccc1,-8.72% (inactive)
13,COC(=O)C[C@H]1C[C@H]2c3cc(NC(=O)CN(C)C)ccc3O[C@H]2[C@H](CO)O1,4.38% (inactive)
14,Cc1noc(C)c1S(=O)(=O)Nc1ccc2c(c1)C(=O)N([C@H](C)CO)C[C@H](C)[C@H](CN(C)Cc1ccc(C(F)(F)F)cc1)OCCCC[C@@H](C)O2,62.1% (inactive)
15,C[C@H](NC(=O)C[C@@H]1C=C[C@@H](NC(=O)Cc2ccccn2)[C@H](CO)O1)c1ccccc1,-3.22% (inactive)
16,O=C(Cc1ccccn1)NCC[C@@H]1CC[C@@H](NC(=O)Nc2ccc(Cl)cc2)[C@H](CO)O1,1.95% (inactive)
17,CS(=O)(=O)Nc1ccc2c(c1)[C@H]1C[C@@H](CC(=O)NCC3CC3)O[C@@H](CO)[C@H]1O2,-2.86% (inactive)
18,C[C@H](NC(=O)C[C@H]1C=C[C@@H](NC(=O)Cc2ccccn2)[C@H](CO)O1)c1ccccc1,-0.458% (inactive)
19,C[C@@H](NC(=O)C[C@@H]1C=C[C@H](NC(=O)Cc2ccccn2)[C@H](CO)O1)c1ccccc1,-2.15% (inactive)
